Results: patent US20240383922A1, “KRAS Modulating Compounds” (Gilead Sciences, Inc., priority 2023, published 2024)
Like-named read-outs stand apart in the source and are kept apart here.

How the values were obtained:
[1] = biological target: GDP-loaded wild-type KRAS (WT) (Homo sapiens (Human), UniProt P01116); assay: KRAS (GDP) biochemical TR-FRET probe displacement assay, WT KRAS; assay type: binding; conditions: 2 hours
Experimental: (§1) KRAS (GDP) Biochemical Assays:
(§2) Compounds were serially diluted (1:3) in DMSO. The LabCyte ECHO Acoustic dispenser was used to pre-spot the assay plates (384-well Non-Binding Surface plates, Corning, Catalog #3824) with 50 nL of compound. 5 μL of 2× enzyme concentration was added to the pre-spotted plates and incubated for 30 minutes before adding 5 μL of 2× concentration of Eu-streptavidin and Cy-5 labelled probe (10 μL final reaction volume). The plates were incubated at room temperature for 2 hours before measuring TR-FRET ratio (665 nm/615 nm) on the Envision multimode plate reader. The ratios were normalized to a positive (saturating concentration of known inhibitor) and negative (DMSO) control and plotted against the log of compound concentration.

[2] = biological target: GDP-loaded KRAS-G12C (Homo sapiens (Human), UniProt P01116, G12C); assay: KRAS (GDP) biochemical TR-FRET probe displacement assay, KRAS-G12C; assay type: binding; conditions: 2 hours
GDP-loaded KRAS-G12C, sequence (P01116-2 other isoform, or with tags, fused parts or gaps G12C): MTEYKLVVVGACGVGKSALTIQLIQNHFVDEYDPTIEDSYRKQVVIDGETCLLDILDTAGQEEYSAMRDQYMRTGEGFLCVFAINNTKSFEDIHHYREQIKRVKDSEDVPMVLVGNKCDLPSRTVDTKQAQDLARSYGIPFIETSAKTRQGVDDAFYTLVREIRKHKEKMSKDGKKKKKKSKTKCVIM
Experimental: as §1, §2

[3] = biological target: GDP-loaded KRAS-G12V (Homo sapiens (Human), UniProt P01116, G12V); assay: KRAS (GDP) biochemical TR-FRET probe displacement assay, KRAS-G12V; assay type: binding; conditions: 2 hours
GDP-loaded KRAS-G12V, sequence (P01116-2 other isoform, or with tags, fused parts or gaps G12V): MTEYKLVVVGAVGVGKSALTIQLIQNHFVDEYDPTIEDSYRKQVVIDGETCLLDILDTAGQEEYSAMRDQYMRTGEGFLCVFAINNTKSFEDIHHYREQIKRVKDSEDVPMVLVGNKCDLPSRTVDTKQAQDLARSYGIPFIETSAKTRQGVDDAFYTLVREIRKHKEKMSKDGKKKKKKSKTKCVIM
Experimental: as §1, §2

[4] = biological target: GDP-loaded KRAS-G12D (Homo sapiens (Human), UniProt P01116, G12D); assay: KRAS (GDP) biochemical TR-FRET probe displacement assay, KRAS-G12D; assay type: binding; conditions: 2 hours
GDP-loaded KRAS-G12D, sequence (P01116-2 other isoform, or with tags, fused parts or gaps G12D): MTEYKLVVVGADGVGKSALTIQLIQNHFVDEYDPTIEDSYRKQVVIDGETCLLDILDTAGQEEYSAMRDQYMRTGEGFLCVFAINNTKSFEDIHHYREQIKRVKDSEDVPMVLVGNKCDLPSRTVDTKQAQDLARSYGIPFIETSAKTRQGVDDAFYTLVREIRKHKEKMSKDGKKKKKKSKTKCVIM
Experimental: as §1, §2

[5] = test system: cellular pERK in Kuramochi (WT KRAS) cell-line; assay: Cell based pERK assay (HTRF), Kuramochi; conditions: Kuramochi (WT KRAS) cells, 2 hours incubation
In short: (§3)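 Cellular ERK1/2 phosphorylation is measured by HTRF after a 2 h treatment at 37 °C. Seeding density was 5000 cells/well for AsPC-1 and 7500 cells/well for the other three lines. Ratios are normalized to DMSO and full-inhibition controls, and IC50 values are fitted sigmoidally against log concentration.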

[6] = test system: cellular pERK in MIA-PaCa-2 (KRAS-G12C) cell-line; assay: Cell based pERK assay (HTRF), MIA-PaCa-2; conditions: MIA-PaCa-2 (KRAS-G12C) cells, 2 hours incubation, read-out: MIAPaCa2 pERK EC50
In short: as §3

[7] = test system: cellular pERK in NCI-H441 (KRAS-G12V) cell-line; assay: Cell based pERK assay (HTRF), NCI-H441; conditions: NCI-H441 (KRAS-G12V) cells, 2 hours incubation
In short: as §3

[8] = test system: cellular pERK in ASPC-1 (KRAS G12D) cell-line; assay: Cell based pERK assay (HTRF), ASPC-1; conditions: ASPC-1 (KRAS G12D) cells, 2 hours incubation
In short: as §3

GDP-loaded wild-type KRAS (WT), sequence (P01116-2 other isoform, or with tags, fused parts or gaps): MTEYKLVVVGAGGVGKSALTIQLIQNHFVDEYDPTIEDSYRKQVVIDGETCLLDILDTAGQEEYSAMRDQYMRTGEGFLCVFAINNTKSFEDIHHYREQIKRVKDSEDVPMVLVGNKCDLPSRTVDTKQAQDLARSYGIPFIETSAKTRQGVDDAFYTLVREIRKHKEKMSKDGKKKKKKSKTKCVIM

| Compound | IC50 [1] | IC50 [2] | IC50 [3] | IC50 [4] | EC50 [5] | EC50 [6] | EC50 [7] | EC50 ([8]; read-out: AsPC1 pERK EC50) | EC50 ([6]; Homo sapiens) | EC50 ([7]; Homo sapiens) | EC50 ([8]; Homo sapiens, ASPC1) |
| --- | --- | --- | --- | --- | --- | --- | --- | --- | --- | --- | --- |
| Cc1cc(N)nc(-c2c(Cl)c3c4c(nc(OC[C@@]56CCCN5C[C@H](F)C6)nc4c2F)N2CCCOCC2CC3)c1C(F)(F)F (mixture of isomers) [Example 21-1, 6-(12-chloro-10-fluoro-8-(((2R,7aS)-2-fluorotetrahydro-1H-pyrrolizin-7a(5H)-yl)methoxy)-1,4,5,13,14,14a-hexahydro-3H-[1,4]oxazepino[4′,3′:1,7]azepino[2,3,4-de]quinazolin-11-yl)-4-methyl-5-(trifluoromethyl)pyridin-2-amine] | 5290 nM | 1440 nM | 4960 nM | 17500 nM | > 956 nM | 4640 nM | 7240 nM | 27100 nM |  |  |  |
| C#Cc1c(F)ccc2cc(O)cc(-c3nc4c5c(nc(OC[C@@]67CCCN6C[C@H](F)C7)nc5c3F)N3CCOCC[C@@H]3CC4)c12 (single isomer, unassigned) [Example 9-2] | 0.06 nM | 0.06 nM | 0.1 nM | 0.15 nM | 1.59 nM |  |  |  | 0.23 nM | 2.14 nM | 11.7 nM |
| C#Cc1c(F)ccc2cc(O)cc(-c3nc4c5c(nc(OC[C@@]67CCCN6[C@H](COc6cc(C(F)(F)F)ncn6)CC7)nc5c3F)N3CCCOC[C@@H]3CC4)c12 [Example 6-12] | 0.67 nM | 0.92 nM | 0.22 nM | 0.47 nM | 1.34 nM |  |  |  | 0.149 nM | 0.73 nM | 1.53 nM |
| C#Cc1c(F)ccc2cc(O)cc(-c3nc4c5c(nc(OC[C@@]67CCCN6[C@H](COc6nccnc6C(F)C(C)F)CC7)nc5c3F)N3CCCOC[C@@H]3CC4)c12 (stereo partly drawn) [Example 6-14] | 0.05 nM | 0.08 nM | 0.09 nM | 0.09 nM | 3.46 nM |  |  |  | 0.32 nM | 2.07 nM | 3.5 nM |
| C#Cc1c(F)ccc2cccc(-c3nc4c5c(nc(OC[C@@]67CCCN6[C@H](COc6cc(C(F)(F)F)ncn6)CC7)nc5c3F)N3CCCOC[C@@H]3CC4)c12 [Example 6-15] | 67.9 nM | 36.6 nM | 29.2 nM | 38.5 nM | 231 nM |  |  |  | 403 nM | > 749 nM | > 859 nM |
| C#Cc1c(F)ccc2cc(O)cc(-c3nc4c5c(nc(OC[C@@]67CCCN6C/C(=C\F)C7)nc5c3F)N3CCCOC[C@@H]3CC4)c12 [Example 6-23] | 0.06 nM | 0.05 nM | 0.05 nM | 0.04 nM | 1.14 nM |  |  |  | 0.06 nM | 0.2 nM | 0.44 nM |
| C#Cc1c(F)ccc2cc(O)cc(C3=C(F)C4N=C(OC[C@@]56CCCN5C[C@H](F)C6)N=C5C4C(=C3F)C(C)=C[C@H]3COCCCN53)c12 (stereo partly drawn) [Example 6-28] | 3.43 nM | 2.53 nM | 2.69 nM | 2.82 nM | 11.7 nM |  |  |  | 2.34 nM | 7.98 nM | 17.1 nM |
| C#Cc1c(F)ccc2cc(N)cc(-c3nc4c5c(nc(OC[C@@]67CCCN6C[C@H](F)C7)nc5c3F)N3CCCOC[C@@H]3CC4)c12 [Example 7-1, 5-ethynyl-6-fluoro-4-((S)-1-fluoro-12-(((2R,7aS)-2-fluorotetrahydro-1H-pyrrolizin-7a(5H)-yl)methoxy)-4,5,5a,6,9,10-hexahydro-8H-7-oxa-3,10a,11,13-tetraazanaphtho[1,8-ab]heptalen-2-yl) naphthalen-2-amine] | 3.87 nM | 0.9 nM | 1.78 nM | 2.73 nM | 2.09 nM |  |  |  | 4.12 nM | 4.46 nM | 17.9 nM |
| C#Cc1c(F)ccc2cc(N)cc(-c3nc4c5c(nc(OC[C@@]67CCCN6[C@H](COc6cc(C(F)(F)F)ncn6)CC7)nc5c3F)N3CCCOC[C@@H]3CC4)c12 [Example 7-4] | 2.26 nM | 1.02 nM | 2.01 nM | 4.5 nM | 4.47 nM |  |  |  | 9.04 nM | 8.95 nM | 26.3 nM |
